Results from patent EP4741386A1 (Jiangsu Yahong Meditech Co., Ltd., priority 2023, dated 2025).

Columns and labels:
[1] = biological target: T1, Recombinant human His6-USP1/His6-UAF1 complex protein (Homo sapiens, UniProt O94782); test: In vitro inhibitory activity against USP1 (Ubiquitin Rhodamine 110 fluorescence detection, 384-well plate); assay type: biochemical; settings: Ub-Rho substrate, 1 hour pre-incubation, read after 30 minutes
T1 construct: His6; purchased R&D E-568-050
In short: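 Compounds, kept as 50 mM DMSO stocks, were acoustically dispensed into modified Tris buffer. Inhibition of recombinant human His6-USP1/His6-UAF1 was read by fluorescence from cleavage of Ub-Rho110 substrate.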

MDA-MB-436 = test: CTG experiment for cell viability (CellTiter-Glo, 96-well plate, 7 days); assay type: cell-based; settings: Homo sapiens, MDA-MB-436, 168 h, MDA-MB-436 cells, 7 days culture with compound
Experimental: Test Example 2: CTG experiment for cell viability
• 1. Object: to screen USP1 inhibitors by a CTG assay, using a 96-well plate. • 2. Materials: • The cells used were MDA-MB-436 (manufacturer: Nanjing Cobioer Biotechnology Co., Ltd.) and cultured in DMEM medium, • CTG (CellTiter-Glo® Luminescent Cell Viability Assay kit) (Promega, Cat. No.: G7572), • 96-well plate (Corning, Cat. No.: 3610). • 3. Compounds: all compounds were dissolved in 100% DMSO to obtain 50 mM stock solutions. • 4. Experimental method: • ① Plating: The cells to be tested were spread into a 96-well plate at a certain density, with 200 µL per well, and 200 µL of cell medium was added to the blank wells. […] The cell plate with the compounds was placed in an incubator at 37°C, and further cultured for 7 days prior to detection. • ④ Assay: The substrate and the buffer of CTG kit were mixed evenly. The cell plate with the compounds in Step ③ was taken out from the incubator, and left at room temperature to equilibrate for 30 minutes. The medium containing the compounds was removed from the cell plate, 100 µL of PBS and 50 µL of CTG reagent were added to each well, shaken and mixed for 3 minutes, and then incubated for 10 minutes at room temperature. The plate was read by a BIotek microplate-reader, with a parameter set to 567 CPM. • 5. Curve fitting
It was the same as that for the enzyme.

T1 sequence (O94782 whole entry): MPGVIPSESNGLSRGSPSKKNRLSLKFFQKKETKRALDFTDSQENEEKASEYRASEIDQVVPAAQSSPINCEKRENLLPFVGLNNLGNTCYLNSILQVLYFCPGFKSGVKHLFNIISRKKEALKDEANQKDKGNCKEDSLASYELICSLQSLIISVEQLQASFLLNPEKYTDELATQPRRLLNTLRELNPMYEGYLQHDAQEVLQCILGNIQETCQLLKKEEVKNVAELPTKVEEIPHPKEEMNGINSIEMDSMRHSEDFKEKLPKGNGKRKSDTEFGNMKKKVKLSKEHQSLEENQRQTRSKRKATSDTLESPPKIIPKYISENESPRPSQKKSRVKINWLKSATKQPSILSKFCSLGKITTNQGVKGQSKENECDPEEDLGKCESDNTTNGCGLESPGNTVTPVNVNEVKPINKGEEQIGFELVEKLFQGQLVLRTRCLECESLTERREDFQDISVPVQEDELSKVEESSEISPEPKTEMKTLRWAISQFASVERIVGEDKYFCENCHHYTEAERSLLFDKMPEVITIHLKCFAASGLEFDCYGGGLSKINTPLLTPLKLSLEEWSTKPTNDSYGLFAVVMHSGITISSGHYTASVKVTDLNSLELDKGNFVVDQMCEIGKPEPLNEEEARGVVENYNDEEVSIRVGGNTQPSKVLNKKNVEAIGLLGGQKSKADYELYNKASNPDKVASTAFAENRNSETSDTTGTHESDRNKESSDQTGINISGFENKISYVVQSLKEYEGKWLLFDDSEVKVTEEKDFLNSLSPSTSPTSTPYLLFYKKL
T1 sequence (Q8TAF3 whole entry partner): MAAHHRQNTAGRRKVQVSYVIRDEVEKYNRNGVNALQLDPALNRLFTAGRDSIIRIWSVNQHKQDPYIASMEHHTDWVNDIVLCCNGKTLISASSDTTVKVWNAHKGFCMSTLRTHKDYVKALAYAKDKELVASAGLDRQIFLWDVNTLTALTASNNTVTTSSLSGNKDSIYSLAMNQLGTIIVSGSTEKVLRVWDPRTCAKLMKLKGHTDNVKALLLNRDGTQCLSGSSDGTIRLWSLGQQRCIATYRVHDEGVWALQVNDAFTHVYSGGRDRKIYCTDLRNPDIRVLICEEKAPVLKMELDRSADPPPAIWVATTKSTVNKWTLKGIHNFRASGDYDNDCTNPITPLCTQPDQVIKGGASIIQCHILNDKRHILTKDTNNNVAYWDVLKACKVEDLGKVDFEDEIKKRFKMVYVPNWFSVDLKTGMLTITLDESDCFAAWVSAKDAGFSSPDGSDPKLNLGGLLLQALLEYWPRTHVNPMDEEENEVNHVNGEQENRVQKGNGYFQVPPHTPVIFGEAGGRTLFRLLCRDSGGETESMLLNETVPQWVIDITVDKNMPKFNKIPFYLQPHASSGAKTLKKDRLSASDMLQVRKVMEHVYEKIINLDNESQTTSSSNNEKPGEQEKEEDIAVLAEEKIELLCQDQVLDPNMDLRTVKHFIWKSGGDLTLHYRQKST

SMILES	IC50 [1]	IC50 (MDA-MB-436)
COc1cnc(-c2c(Cl)cnn2C(C)C)nc1NCC1CCN(c2nc(C(F)(F)F)cn2C)CC1 [Example 163, 2-(4-Chloro-1-isopropyl-1H-pyrazol-5-yl)-5-methoxy-N-((1-(1-methyl-4-(trifluoromethyl)-1H-imidazol-2-yl)piperidin-4-yl)methyl)pyrimidin-4-amine]	2.3 nM	13.5 nM
COc1cnc(-c2c(OC)ncnc2C2CC2)nc1NCc1ccc(-c2ccccn2)cc1 [Example 94, 4'-Cyclopropyl-5,6'-dimethoxy-N-(4-(pyridin-2-yl)benzyl)-[2,5'-bipyrimidin]-4-amine]	6.5 nM	275 nM
COc1cnc(-c2ccccc2C(C)C)nc1NCc1ccc(-n2nc(C(F)(F)F)cc2C)cc1 [Example 7, 2-(2-Isopropylphenyl)-5-methoxy-N-(4-(5-methyl-3-(trifluoromethyl)-1H-pyrazol-1-yl)benzyl)pyrimidin-4-amine]	4.5 nM	102 nM
COc1cnc(-c2c(OC)ncnc2C2CC2)nc1NCc1ccc(-c2nc(C)cn2C(F)F)cc1 [Example 105, 4'-Cyclopropyl-N-(4-(1-(difluoromethyl)-4-methyl-1H-imidazol-2-yl)benzyl)-5,6'-dimethoxy-[2,5'-bipyrimidin]-4-amine]	60 nM	124 nM
COc1cnc(-c2c(OC)ncnc2C2CC2)nc1N(C)CC1CCN(c2nc(C(F)(F)F)cn2C)CC1 [Example 92, 4'-Cyclopropyl-5,6'-dimethoxy-N-methyl-N-((1-(1-methyl-4-(trifluoromethyl)-1 H-imidazol-2-yl)piperidin-4-yl)methyl)-[2,5'-bipyrimidin]-4-amine]	3.3 nM	27.3 nM
Cc1cc(C(F)(F)F)nn1-c1ccc(CNc2nc(-c3c(Cl)cnn3C(C)C)nc3ccoc23)cc1 [Example 168, 2-(4-Chloro-1-isopropyl-1H-pyrazol-5-yl)-N-(4-(5-methyl-3-(trifluoromethyl)-1H-pyrazol-1-yl)benzyl)furo[3,2-d]pyrimidin-4-amine]	1.2 nM	5.1 nM
COc1cc(CNc2nc(-c3ccccc3C(C)C)ncc2OC)ccc1-n1nc(C(F)(F)F)cc1C [Example 69, 2-(2-Isopropylphenyl)-5-methoxy-N-(3-methoxy-4-(5-methyl-3-(trifluoromethyl)-1H-pyrazol-1-yl)benzyl)pyrimidin-4-amine]	9.2 nM	709 nM
COc1cnc(-c2c(C)cnn2C(C)C)nc1NCc1ccc(-c2nc(C(F)(F)F)cn2C)cc1 [Example 202, 2-(1-Isopropyl-4-methyl-1H-pyrazol-5-yl)-5-methoxy-N-(4-(1-methyl-4-(trifluoromethyl)-1H-imidazol-2-yl)benzyl)pyrimidin-4-amine]	3 nM	15.9 nM
[2H]C([2H])([2H])N(C[C@H]1CC[C@H](c2nc(C(F)(F)F)cn2C2CC2)CC1)c1nc(-c2c(OC)ncnc2C2CC2)ncc1OC [Example S23, 4'-Cyclopropyl-N-(((1R,4R)-4-(1-cyclopropyl-4-(trifluoromethyl)-1H-imidazol-2-yl)cyclohexyl)methyl)-5,6'-dimethoxy-N-(methyl-D3)-[2,5'-bipyrimidin]-4-amine]	4.8 nM	0.1 nM
COc1ncnc(C2CC2)c1-c1ncc2c(n1)N(C[C@H]1CC[C@H](c3nc(C(F)(F)F)cn3C)CC1)CCO2 [Example 22, 2-(4-Cyclopropyl-6-methoxypyrimidin-5-yl)-8-(((1r,4r)-4-(1-methyl-4-(trifluoromethyl)-1H-imidazol-2-yl)cyclohexyl)methyl)-7,8-dihydro-6H-pyrimido[5,4-b][1,4]oxazine]	24.4 nM	209 nM
COc1cnc(-c2c(OC)ncnc2C(F)(F)F)nc1NCC12CCC(c3nc(C(F)(F)F)cn3C(C)C)(CC1)OC2 [Example S15, N-((1-(1-Isopropyl-4-(trifluoromethyl)-1H-imidazol-2-yl)-2-oxabicyclo[2.2.2]oct-4-yl)methyl)-4',5-dimethoxy-6'-(trifluoromethyl)-[2,5'-bipyrimidin]-4-amine]	91 nM	239 nM
COc1cnc(-c2c(OC)ncnc2C2CC2)nc1NC[C@H]1CC[C@H](c2nc(C(F)(F)F)cn2C)CC1 [Example S20]	19 nM	21.4 nM

Continued by falling IC50 [1], values first:

IC50 [1]	IC50 (MDA-MB-436)	SMILES
34 nM	40.3 nM	COc1cnc(-c2c(OC)ncnc2C2CC2)nc1NCC12CCC(c3nc(C(F)(F)F)cn3C3CCC3)(CC1)OC2 [Example S16, N-((1-(1-Cyclobutyl-4-(trifluoromethyl)-1H-imidazol-2-yl)-2-oxabicyclo[2.2.2]oct-4-yl)methyl)-4'-cyclopropyl-5,6'-dimethoxy-[2,5'-bipyrimidin]-4-amine]
22 nM	751 nM	COc1cnc(-c2ccccc2C(C)C)nc1NCc1ccc(-c2nccn3ccnc23)cc1 [Example 11, N-(4-(Imidazo[1,2-a]pyrazin-8-yl)benzyl)-2-(2-isopropylphenyl)-5-methoxypyrimidin-4-amine]
19.4 nM	536 nM	COc1ncnc(C2CC2)c1-c1nc(NCc2ccc(OCc3ccccn3)cc2)c2occc2n1 [Example 116, 2-(4-Cyclopropyl-6-methoxypyrimidin-5-yl)-N-(4-(pyridin-2-ylmethoxy)benzyl)furo[3,2-d]pyrimidin-4-amine]
15 nM	338 nM	COc1cnc(-c2c(OC)ncnc2OC)nc1NC[C@H]1CC[C@H](c2nc(C(F)(F)F)cn2C2CC2)CC1 [Example S29, N-(((1R,4R)-4-(1-cyclopropyl-4-(trifluoromethyl)-1H-imidazol-2-yl)cyclohexyl)methyl)-4',5,6'-trimethoxy-[2,5'-bipyrimidin]-4-amine]
14 nM	20.2 nM	[2H]C([2H])([2H])Oc1ncnc(C2CC2)c1-c1ncc(OC)c(NCC23CCC(c4nc(C(F)(F)F)cn4C)(CC2)CC3)n1 [Example S5, 4'-Cyclopropyl-5-methoxy-6'-(methoxy-D3)-N-((4-(1-methyl-4-(trifluoromethyl)-1H-imidazol-2-yl)bicyclo[2.2.2]oct-1-yl)methyl)-[2,5'-bipyrimidin]-4-amine]
12 nM	40.5 nM	COc1cnc(-c2c(C)cnn2C(C)C)nc1N(C)Cc1ccc(-n2nc(C(F)(F)F)cc2C)cc1 [Example 201, 2-(1-Isopropyl-4-methyl-1H-pyrazol-5-yl)-5-methoxy-N-methyl-N-(4-(5-methyl-3-(trifluoromethyl)-1H-pyrazol-1-yl)benzyl)pyrimidin-4-amine]
9 nM	12.6 nM	[2H]C([2H])([2H])N(Cc1ccc(-c2nc(C(F)(F)F)cn2C(C)C)cc1)c1nc(-c2c(OC)ncnc2C2CC2)ncc1F [Example 129, 4'-Cyclopropyl-5-fluoro-N-(4-(1-isopropyl-4-(trifluoromethyl)-1H-imidazol-2-yl)benzyl)-6'-methoxy-N-(methyl-d3)-[2,5'-bipyrimidin]-4-amine]
3.7 nM	6.3 nM	COc1cnc(-c2ccccc2C(C)C)nc1NCc1ccc(-c2ccccn2)cc1 [Example 64, 2-(2-Isopropylphenyl)-5-methoxy-N-(4-(pyridin-2-yl)benzyl)pyrimidin-4-amine]
1.7 nM	278 nM	COc1cc(CNc2nc(-c3ccccc3C(C)C)nc3ccoc23)ccc1-c1nc(C(F)(F)F)cn1C [Example 82, 2-(2-Isopropylphenyl)-N-(3-methoxy-4-(1-methyl-4-(trifluoromethyl)-1H-imidazol-2-yl)benzyl)furo[3,2-d]pyrimidin-4-amine]
